Experimental data: US11884661B2, “3-substituted propionic acids as αV integrin inhibitors” (BRISTOL-MYERS SQUIBB COMPANY, priority 2016, dated 2024)
pIC50: −log10 of the molar value.

target: T1, human αVβ6 (Homo sapiens, UniProt P06756+P18564); experiment: human αVβ6 HTRF binding assay; conditions: recombinant human αVβ6 integrin, FITC-conjugated fibronectin
T1 construct: purchased R & D systems 3817-AV
Summary of the method: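 Biotinylated recombinant αVβ6 (1.25 nM final) incubated with FITC-fibronectin (5 nM) 1 h at RT, then streptavidin-terbium (0.625 nM) added and incubated overnight at RT in the dark before HTRF read. Buffer: 20 mM Tris pH 7.4, 1 mM MgCl2, 1 mM MnCl2, 0.01% Tween 20, 0.01% BSA.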

T1 sequence (P06756 31-992 limits assumed): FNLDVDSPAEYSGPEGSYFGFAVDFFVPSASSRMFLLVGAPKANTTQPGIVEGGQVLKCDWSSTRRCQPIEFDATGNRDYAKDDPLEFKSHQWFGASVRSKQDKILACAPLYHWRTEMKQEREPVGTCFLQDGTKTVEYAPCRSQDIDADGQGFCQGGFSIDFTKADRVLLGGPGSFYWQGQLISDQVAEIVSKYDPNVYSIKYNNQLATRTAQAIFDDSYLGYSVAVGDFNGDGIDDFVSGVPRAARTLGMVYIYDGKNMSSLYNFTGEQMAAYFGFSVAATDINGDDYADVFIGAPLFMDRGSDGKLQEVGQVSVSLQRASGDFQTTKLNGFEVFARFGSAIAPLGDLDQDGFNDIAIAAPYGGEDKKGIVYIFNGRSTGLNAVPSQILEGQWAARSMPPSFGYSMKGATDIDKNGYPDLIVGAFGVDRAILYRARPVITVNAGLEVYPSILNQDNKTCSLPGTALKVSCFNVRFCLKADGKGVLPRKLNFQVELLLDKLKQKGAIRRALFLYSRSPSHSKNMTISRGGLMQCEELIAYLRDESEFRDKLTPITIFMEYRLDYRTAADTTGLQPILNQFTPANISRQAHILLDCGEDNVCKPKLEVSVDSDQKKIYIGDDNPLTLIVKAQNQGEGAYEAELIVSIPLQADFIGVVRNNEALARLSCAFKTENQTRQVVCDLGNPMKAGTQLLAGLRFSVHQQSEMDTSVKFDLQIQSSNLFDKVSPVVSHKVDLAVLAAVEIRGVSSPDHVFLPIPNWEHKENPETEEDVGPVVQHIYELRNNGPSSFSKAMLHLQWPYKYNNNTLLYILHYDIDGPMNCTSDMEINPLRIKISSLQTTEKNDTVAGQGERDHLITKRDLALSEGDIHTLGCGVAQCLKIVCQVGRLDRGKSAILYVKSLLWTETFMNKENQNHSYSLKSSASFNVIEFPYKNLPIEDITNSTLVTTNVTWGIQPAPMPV
T1 sequence (P18564 22-707 limits assumed): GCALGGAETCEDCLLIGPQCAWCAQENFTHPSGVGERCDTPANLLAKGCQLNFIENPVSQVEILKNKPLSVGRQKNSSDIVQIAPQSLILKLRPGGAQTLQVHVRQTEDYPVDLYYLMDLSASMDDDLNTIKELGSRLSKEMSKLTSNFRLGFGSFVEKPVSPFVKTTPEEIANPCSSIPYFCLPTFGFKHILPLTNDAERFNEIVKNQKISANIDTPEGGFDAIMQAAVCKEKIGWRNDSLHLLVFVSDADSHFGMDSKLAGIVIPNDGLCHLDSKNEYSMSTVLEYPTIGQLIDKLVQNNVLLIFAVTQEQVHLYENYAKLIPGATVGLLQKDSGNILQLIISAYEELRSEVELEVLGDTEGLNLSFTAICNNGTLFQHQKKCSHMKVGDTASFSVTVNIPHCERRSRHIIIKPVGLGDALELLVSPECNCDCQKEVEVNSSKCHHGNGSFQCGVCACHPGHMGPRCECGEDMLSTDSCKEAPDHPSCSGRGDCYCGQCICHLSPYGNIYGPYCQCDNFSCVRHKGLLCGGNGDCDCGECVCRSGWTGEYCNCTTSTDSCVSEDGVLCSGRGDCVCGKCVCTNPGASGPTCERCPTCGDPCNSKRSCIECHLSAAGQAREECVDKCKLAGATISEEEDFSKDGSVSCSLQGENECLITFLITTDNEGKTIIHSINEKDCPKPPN

SMILES	pIC50
COc1ccc(C(CC(=O)O)c2nc(CCCC3CCc4cccnc4N3)cs2)cc1F (single isomer, unassigned) [Example 160, 3-(3-fluoro-4-methoxyphenyl)-3-(4-(3-(1,2,3,4-tetrahydro-1,8-naphthyridin-2-yl)propyl)thiazol-2-yl)propanoic acid]	6.71
COc1ccc(C(CC(=O)O)c2nc(CCCC3CCc4cccnc4N3)cs2)cc1F (single isomer, unassigned) [Example 161, 3-(3-fluoro-4-methoxyphenyl)-3-(4-(3-(1,2,3,4-tetrahydro-1,8-naphthyridin-2-yl)propyl)thiazol-2-yl)propanoic acid]	7.92
Cc1cc(C)n(C(CC(=O)O)c2nc(CCCc3ccc4c(n3)NCCC4)cs2)n1 (single isomer, unassigned) [Example 162, 3-(3,5-dimethyl-1H-pyrazol-1-yl)-3-(4-(3-(5,6,7,8-tetrahydro-1,8-naphthyridin-2-yl)propyl)thiazol-2-yl)propanoic acid]	7.15
Cc1cc(C)n(C(CC(=O)O)c2nc(CCCc3ccc4c(n3)NCCC4)cs2)n1 (single isomer, unassigned) [Example 163, 3-(3,5-dimethyl-1H-pyrazol-1-yl)-3-(4-(3-(5,6,7,8-tetrahydro-1,8-naphthyridin-2-yl)propyl)thiazol-2-yl)propanoic acid]	6.66
COc1ccc(C(CC(=O)O)c2ncc(CCCCc3ccc4c(n3)NCCC4)n2C)cc1F (single isomer, unassigned) [Example 166, 3-(3-fluoro-4-methoxyphenyl)-3-(1-methyl-5-(4-(5,6,7,8-tetrahydro-1,8-naphthyridin-2-yl)butyl)-1H-imidazol-2-yl)propanoic acid]	6.55
COc1ccc(C(CC(=O)O)c2ncc(CCCCc3ccc4c(n3)NCCC4)n2C)cc1F (single isomer, unassigned) [Example 167, 3-(3-fluoro-4-methoxyphenyl)-3-(1-methyl-5-(4-(5,6,7,8-tetrahydro-1,8-naphthyridin-2-yl)butyl)-1H-imidazol-2-yl)propanoic acid]	7.57
COc1ccc(C(CC(=O)O)c2nc(CCCCc3ccc4c(n3)NCCC4)cn2C)cc1F (single isomer, unassigned) [Example 169, 3-(3-fluoro-4-methoxyphenyl)-3-(1-methyl-4-(4-(5,6,7,8-tetrahydro-1,8-naphthyridin-2-yl)butyl)-1H-imidazol-2-yl)propanoic acid]	7.17
COc1ccc(C(CC(=O)O)n2ncc(CCCc3ccc4c(n3)NCCC4)n2)cn1 (single isomer, unassigned) [Example 170, 3-(6-methoxypyridin-3-yl)-3-(4-(3-(5,6,7,8-tetrahydro-1,8-naphthyridin-2-yl)propyl)-2H-1,2,3-triazol-2-yl)propanoic acid]	6.21
COc1ccc(C(CC(=O)O)n2ncc(CCCc3ccc4c(n3)NCCC4)n2)cn1 (single isomer, unassigned) [Example 171, 3-(6-methoxypyridin-3-yl)-3-(4-(3-(5,6,7,8-tetrahydro-1,8-naphthyridin-2-yl)propyl)-2H-1,2,3-triazol-2-yl)propanoic acid]	7.57
COc1ccc(C(CC(=O)O)n2ncc(CCCc3ccc4c(n3)NCCC4)n2)cc1F (single isomer, unassigned) [Example 173, 3-(3-fluoro-4-methoxyphenyl)-3-(4-(3-(5,6,7,8-tetrahydro-1,8-naphthyridin-2-yl)propyl)-2H-1,2,3-triazol-2-yl)propanoic acid]	8.52
O=C(O)CC(c1cnc2ccccc2c1)n1ncc(CCCc2ccc3c(n2)NCCC3)n1 (single isomer, unassigned) [Example 174, 3-(quinolin-3-yl)-3-(4-(3-(5,6,7,8-tetrahydro-1,8-naphthyridin-2-yl)propyl)-2H-1,2,3-triazol-2-yl)propanoic acid]	6.77
O=C(O)CC(c1cnc2ccccc2c1)n1ncc(CCCc2ccc3c(n2)NCCC3)n1 (single isomer, unassigned) [Example 175, 3-(quinolin-3-yl)-3-(4-(3-(5,6,7,8-tetrahydro-1,8-naphthyridin-2-yl)propyl)-2H-1,2,3-triazol-2-yl)propanoic acid]	8.37
COc1ncc(C(CC(=O)O)n2ncc(CCCc3ccc4c(n3)NCCC4)n2)cn1 (single isomer, unassigned) [Example 176, 3-(2-methoxypyrimidin-5-yl)-3-(4-(3-(5,6,7,8-tetrahydro-1,8-naphthyridin-2-yl)propyl)-2H-1,2,3-triazol-2-yl)propanoic acid]	7.37
COc1ncc(C(CC(=O)O)n2ncc(CCCc3ccc4c(n3)NCCC4)n2)cn1 (single isomer, unassigned) [Example 177, 3-(2-methoxypyrimidin-5-yl)-3-(4-(3-(5,6,7,8-tetrahydro-1,8-naphthyridin-2-yl)propyl)-2H-1,2,3-triazol-2-yl)propanoic acid]	6.50
COc1ccc(C(CC(=O)O)c2nc(CCCc3ccc4c(n3)NCCC4)co2)cc1F (single isomer, unassigned) [Example 179, 3-(3-fluoro-4-methoxyphenyl)-3-(4-(3-(5,6,7,8-tetrahydro-1,8-naphthyridin-2-yl)propyl)oxazol-2-yl)propanoic acid]	7.18
COc1ccc(C(CC(=O)O)c2nc(CCCCc3ccc4c(n3)NCCC4)c(C)o2)cc1F (single isomer, unassigned) [Example 180, 3-(3-fluoro-4-methoxyphenyl)-3-(5-methyl-4-(4-(5,6,7,8-tetrahydro-1,8-naphthyridin-2-yl)butyl)oxazol-2-yl)propanoic acid]	6.60
COc1ccc([C@H](CC(=O)O)c2cnn(CCCc3ccc4c(n3)NCCC4)c2)cn1 [Example 8, (A)-3-(6-Methoxypyridin-3-yl)-3-(1-(3-(5,6,7,8-tetrahydro-1,8-naphthyridin-2-yl)propyl)-1H-pyrazol-4-yl)propanoic acid]	7.19
O=C(O)C[C@@H](c1ccc(O)nc1)n1ccc(CCCc2ccc3c(n2)NCCC3)n1 [Example 12, (S)-3-(6-Hydroxypyridin-3-yl)-3-(3-(3-(5,6,7,8-tetrahydro-1,8-naphthyridin-2-yl)propyl)-1H-pyrazol-1-yl)propanoic acid]	7.51
O=C(O)C[C@H](c1cnc2c(c1)OCCO2)n1ccc(CCCc2ccc3c(n2)NCCC3)n1 [Example 52, (R)-3-(2,3-Dihydro-[1,4]dioxino[2,3-b]pyridin-7-yl)-3-(3-(3-(5,6,7,8-tetrahydro-1,8-naphthyridin-2-yl)propyl)-1H-pyrazol-1-yl)propanoic acid]	6.14
CCOc1ncc([C@H](CC(=O)O)n2ccc(CCCc3ccc4c(n3)NCCC4)n2)cn1 [Example 56, (S)-3-(2-Ethoxypyrimidin-5-yl)-3-(3-(3-(5,6,7,8-tetrahydro-1,8-naphthyridin-2-yl)propyl)-1H-pyrazol-1-yl)propanoic acid]	8.15

Further compounds by rising pIC50, results first:

pIC50	SMILES
6.05	Cc1ncc([C@@H](CC(=O)O)n2ccc(CCCc3ccc4c(n3)NCCC4)n2)cn1 [Example 55, (R)-3-(2-Methylpyrimidin-5-yl)-3-(3-(3-(5,6,7,8-tetrahydro-1,8-naphthyridin-2-yl)propyl)-1H-pyrazol-1-yl)propanoic acid]
6.34	COc1ccc(C(CC(=O)O)c2ncc(CCCCc3ccc4c(n3)NCCC4)n2C)cn1 (single isomer, unassigned) [Example 164, 3-(6-methoxypyridin-3-yl)-3-(1-methyl-5-(4-(5,6,7,8-tetrahydro-1,8-naphthyridin-2-yl)butyl)-1H-imidazol-2-yl)propanoic acid]
6.43	COc1ccc(C(CC(=O)O)c2nc(CCCC3CCc4cccnc4N3)cs2)cc1F (single isomer, unassigned) [Example 159, 3-(3-fluoro-4-methoxyphenyl)-3-(4-(3-(1,2,3,4-tetrahydro-1,8-naphthyridin-2-yl)propyl)thiazol-2-yl)propanoic acid]
6.67	COc1ccc([C@@H](CC(=O)O)c2cnn(CCCc3ccc4c(n3)NCCC4)c2)cn1 [Example 9, (R)-3-(6-Methoxypyridin-3-yl)-3-(1-(3-(5,6,7,8-tetrahydro-1,8-naphthyridin-2-yl)propyl)-1H-pyrazol-4-yl)propanoic acid]
7.04	COc1ccc(C(CC(=O)O)c2nc(CCCCc3ccc4c(n3)NCCC4)cn2C)cc1F (single isomer, unassigned) [Example 168, 3-(3-fluoro-4-methoxyphenyl)-3-(1-methyl-4-(4-(5,6,7,8-tetrahydro-1,8-naphthyridin-2-yl)butyl)-1H-imidazol-2-yl)propanoic acid]
7.19	COc1ccc(C(CC(=O)O)c2cnn(CCCCc3ccc4c(n3)NCCC4)c2)cc1F (centres unmarked) [Example 44, 3-(3-fluoro-4-methoxyphenyl)-3-(1-(4-(5,6,7,8-tetrahydro-1,8-naphthyridin-2-yl)butyl)-1H-pyrazol-4-yl)propanoic acid]
7.28	COc1ccc(C(CC(=O)O)n2ncc(CCCc3ccc4c(n3)NCCC4)n2)cc1F (single isomer, unassigned) [Example 172, 3-(3-fluoro-4-methoxyphenyl)-3-(4-(3-(5,6,7,8-tetrahydro-1,8-naphthyridin-2-yl)propyl)-2H-1,2,3-triazol-2-yl)propanoic acid]
7.57	COc1ccc(C(CC(=O)O)c2ncc(CCCCc3ccc4c(n3)NCCC4)n2C)cn1 (single isomer, unassigned) [Example 165, 3-(6-methoxypyridin-3-yl)-3-(1-methyl-5-(4-(5,6,7,8-tetrahydro-1,8-naphthyridin-2-yl)butyl)-1H-imidazol-2-yl)propanoic acid]
8.31	O=C(O)C[C@@H](c1cnc2c(c1)OCCO2)n1ccc(CCCc2ccc3c(n2)NCCC3)n1 [Example 51, (S)-3-(2,3-Dihydro-[1,4]dioxino[2,3-b]pyridin-7-yl)-3-(3-(3-(5,6,7,8-tetrahydro-1,8-naphthyridin-2-yl)propyl)-1H-pyrazol-1-yl)propanoic acid]
